The values that follow come from patent publication US20110112100A1, “Hepatitis C Virus Inhibitors” (priority 2009, published 2011).

Where a name gives a salt, the structure may show the parent alone. Read-outs that look alike come from different tables or passages of the source.

For one experiment, the system named is 1a-H77 replicon cells. As to the kind of experiment: HCV 1a replicon inhibitory activity (Renilla luciferase). The class given is cell-based, hepatitis C virus. The note with it: read-out: IC50 value (95% Confidence Intervals) pM Replicon 1A assay. How it is done: (§1) Test compounds were solubilised to 4 mM in 100% DMSO. Dilutions were made to the desired starting concentration in 100% DMSO and then 1 in 3 dilutions made, again in 100% DMSO. 0.5 μl of each sample was added to 384-well assay plates. White Lumitrac (Greiner) plates were used for the 1a and 1b replicon assays and black, clear bottomed (Greiner) plates were used for the WST-1 cytotoxity assay.
1a-H77 replicon cells (licensed from Apath LLC) were resuspended to a concentration of 1.4×10^5 cells/ml by addition of pre-warmed assay medium (Dulbecco's Modified Eagle's Medium (DMEM)+10% fetal calf serum (FCS)). 50 μl of this suspension was added to each well of a 384-well assay plate (Lumitrac, Greiner), already containing 0.5 μl of test compound.
All plates were covered with gas permeable seals and incubated at 37° C., 5% CO2 for 48 hours. After 48 hours, the assay plate was removed from the incubator and left to cool to room temperature for 15 to 30 mins. Medium was removed from the wells and 5 μl 1× lysis buffer (from Promega's Renilla Luciferase assay kit, E2820) was added to each well. The plate was incubated at room temperature for 15 mins then 15 μl 1×Assay Substrate (from the same kit) was added to each well. Luminescence was read immediately using an EnVision (Perkin Elmer) plate reader. The half maximal effective concentration (1050) values were calculated by constructing log concentration-response curves for each compound.

The subject of the next experiment is 1b (con1) replicon cells. As to the kind of experiment: HCV 1b replicon inhibitory activity (luciferase, Britelite Plus). The class given is cell-based, hepatitis C virus. The following applies: read-out: IC50 value (95% Confidence Intervals) pM Replicon 1B assay. How it is done: as §1
1b (con1) replicon cells (pFK1389lucubineo/NS3-3′/ET/9B, licensed from Ralf Bartenschlager, University of Heidelberg) were resuspended to a concentration of 1.4×10^5 cells/ml by addition of pre-warmed medium (DMEM+10% FCS). 50 μl of this suspension was added to each well of a 384-well assay plate (Lumitrac, Greiner) already containing 0.5 μl of test compound.
All plates were covered with gas permeable seals and incubated at 37° C., 5% CO2 for 48 hours. After 48 hours, the plate was removed from the incubator and left to cool to room temperature for 15-30 mins. 35 ul of reconstituted Lyophilised Britelite Plus Substrate (PerkinElmer, 6016767) to medium was added to each well. Luminescence was read after 1 min but before 15 mins on an EnVision (Perkin Elmer) plate reader. The half maximal effective concentration (1050) values were calculated by constructing log concentration-response curves for each compound.

Setting [1] is: Hepatitis C virus, geometric mean, 95% confidence intervals in parentheses, 48 hours, medium with 10% FCS.
Setting [2] is: geometric mean, 95% confidence intervals in parentheses, 48 hours, medium with 10% FCS.

On to `COC(=O)N[C@H](C(=O)N1CCC[C@H]1c1nc(-c2ccc(-c3nc4ccc(-c5c[nH]c([C@@H]6CCCN6C(=O)[C@@H](NC(=O)OC)C(C)C)n5)cc4nc3O)cc2)c[nH]1)C(C)C` [Example 18, Methyl {(2S)-1-[(2S)-2-{4-[4-(3-hydroxy-6-{2-[(2S)-1-{(2S)-2-[(methoxycarbonyl)amino]-3-methylbutanoyl}pyrrolidin-2-yl]-1H-imidazol-4-yl}quinoxalin-2-yl)phenyl]-1H-imidazol-2-yl}pyrrolidin-1-yl]-3-methyl-1-oxobutan-2-yl}carbamate], for which the figures for the IC50 in the experiment with 1a-H77 replicon cells (setting [1]) and in the experiment with 1b (con1) replicon cells (setting [1]) were 536 pM and 35.8 pM, respectively.
For the compound `COC(=O)N[C@H](C(=O)N1CCC[C@H]1c1nc(-c2ccc(-c3cnc4cc(-c5cnc([C@@H]6CCCN6C(=O)[C@H](CCC(N)=O)NC(C)=O)[nH]5)ccc4n3)cc2)c[nH]1)C(C)C` [Example 34, Methyl {(2S)-1-[(2S)-2-{4-[4-(6-[2-[(2S)-1-(N^2-acetyl-L-glutaminyl)pyrrolidin-2-yl]-1H-imidazol-5-yl}quinoxalin-2-yl)phenyl]-1H-imidazol-2-yl}pyrrolidin-1-yl]-3-methyl-1-oxobutan-2-yl}carbamate trifluoroacetic acid salt], the IC50 with 1a-H77 replicon cells (Hepatitis C virus, 48 h) stood at 5930 pM; in the experiment on 1b (con1) replicon cells (Hepatitis C virus, 48 h) it was 1430 pM.
As for “Methyl {(2S)-1-[(2S)-2-{4-[4-(6-{2-[(2S)- 1-{(2S)-3-tert-butoxy-2-[(methoxy carbonyl)amino]propanoyl}pyrrolidin-2- yl]-1H-imidazol-5-yl}quinoxalin-2-yl) phenyl]-1H-imidazol-2-yl}pyrrolidin-1-yl]- 3-methyl-1-oxobutan-2-yl}carbamate trifluoroacetic acid salt [Example 81]”, the IC50 with 1a-H77 replicon cells (setting [2]) turned out to be 44 pM; in the experiment with 1b (con1) replicon cells (setting [2]), 13.7 pM.
Consider `CC[C@H](NC(=O)OC)C(=O)N1CCC[C@H]1c1ncc(-c2ccc3cc(-c4ccc(-c5cnc([C@@H]6CCCN6C(=O)[C@@H](NC(=O)OC)C(C)C)[nH]5)cc4)ccc3c2)[nH]1` [Example 26, Methyl {(2S)-1-[(2S)-2-{5-[4-(6-{2-[(2S)-1-{(2S)-2-[(methoxycarbonyl)amino]butanoyl}pyrrolidin-2-yl]-1H-imidazol-5-yl}naphthalen-2-yl)phenyl]-1H-imidazol-2-yl}pyrrolidin-1-yl]-3-methyl-1-oxobutan-2-yl}carbamate], for which the IC50 with 1a-H77 replicon cells (setting [1]) was 64.1 pM; with 1b (con1) replicon cells (setting [1]) it was 1.92 pM.
`COC(=O)N[C@H](C(=O)N1CCC[C@H]1c1nc(-c2ccc(-c3cnc4cc(-c5cnc([C@@H]6CCCN6C(=O)[C@@H](CC(C)C)NC(=O)OC)[nH]5)ccc4n3)cc2)c[nH]1)C(C)C` [Example 54, Methyl {(2R)-1-[(2S)-2-{5-[2-(4-{2-[(2S)-1-{(2S)-2-[(methoxycarbonyl)amino]-3-methylbutanoyl}pyrrolidin-2-yl]-1H-imidaozl-4-yl}phenyl)quinoxalin-6-yl]-1H-imidazol-2-yl}pyrrolidin-1-yl]-4-methyl-1-oxopentan-2-yl}carbamate trifluoroacetic acid salt]: the IC50 in the experiment with 1a-H77 replicon cells (setting [2]) is 61.2 pM; in the experiment with 1b (con1) replicon cells (setting [2]), 14.9 pM.
With `COC(=O)N[C@H](C(=O)N1CCC[C@H]1c1nc(-c2ccc(-c3cc4ccc(-c5cnc([C@@H]6CCCN6C(=O)[C@@H](NC(=O)OC)C(C)C)[nH]5)cc4cn3)nc2)c[nH]1)C(C)C` [Example 11, Methyl {(2S)-1-[(2S)-2-{4-[6-(7-{2-[(2S)-1-{(2S)-2-[(methoxycarbonyl)amino]-3-methyl-butanoyl}pyrrolidin-2-yl]-1H-imidazol-5-yl}isoquinolin-3-yl)pyridin-3-yl]-1H-imidazol-2-yl}pyrrolidin-1-yl]-3-methyl-1-oxobutan-2-yl}carbamate], the IC50 came out at 42.1 pM in the experiment with 1a-H77 replicon cells (setting [1]) and 20.8 pM in the experiment with 1b (con1) replicon cells (setting [1]).
